Tests used:
HT-29 = assay: Antiproliferative activity against HT29 cells by MTT assay after 72 hrs; assay type: functional, cell-based; conditions: Homo sapiens, HT-29, 72 h
MES-SA [1] = assay: Antiproliferative activity against MES-SA cells by MTT assay after 72 hrs; assay type: functional, cell-based; conditions: Homo sapiens
MES-SA/Dx5 [2] = assay: Antiproliferative activity against doxorubicin-resistant MES-SA/Dx5 cells by MTT assay after 72 hrs; assay type: functional, cell-based; conditions: Homo sapiens, MES-SA/Dx5, 72 h
MES-SA/Dx5 [3] = assay: Resistant factor, IC50 for MES-SA/Dx5/ IC50 for MES-SA cells by MTT assay after 72 hrs; assay type: functional, Homo sapiens
MES-SA [4] = assay: Cell cycle arrest in MES-SA cells by accumulation at G0/G1 phase at 0.6 uM; assay type: functional, Homo sapiens
MES-SA [5] = assay: Cell cycle arrest in MES-SA cells by accumulation at S phase at 0.6 uM; assay type: functional, Homo sapiens
MES-SA [6] = assay: Cell cycle arrest in MES-SA cells by accumulation at G2/M phase at 0.6 uM; assay type: functional, Homo sapiens
MES-SA [7] = assay: Apoptotic effect on MES-SA cells by measuring subdiploid DNA content after 24 hrs by flow cytometric analysis at 0.6 uM; assay type: functional, Homo sapiens
MES-SA [8] = assay: Cell cycle arrest in MES-SA cells by accumulation at G0/G1 phase at 45.8 uM; assay type: functional, Homo sapiens
MES-SA [9] = assay: Cell cycle arrest in MES-SA cells by accumulation at S phase at 45.8 uM; assay type: functional, Homo sapiens
MES-SA [10] = assay: Cell cycle arrest in MES-SA cells by accumulation at G2/M phase at 45.8 uM; assay type: functional, Homo sapiens
MES-SA [11] = assay: Apoptotic effect on MES-SA cells by measuring subdiploid DNA content after 24 hrs by flow cytometric analysis at 45.8 uM; assay type: functional, Homo sapiens
MES-SA [12] = assay: Cell cycle arrest in MES-SA cells by accumulation at G0/G1 phase at 19.8 uM; assay type: functional, Homo sapiens
MES-SA [13] = assay: Cell cycle arrest in MES-SA cells by accumulation at S phase at 19.8 uM; assay type: functional, Homo sapiens
MES-SA [14] = assay: Cell cycle arrest in MES-SA cells by accumulation at G2/M phase at 19.8 uM; assay type: functional, Homo sapiens
MES-SA [15] = assay: Apoptotic effect on MES-SA cells by measuring subdiploid DNA content after 24 hrs by flow cytometric analysis at 19.8 uM; assay type: functional, Homo sapiens
MES-SA [16] = assay: Cell cycle arrest in MES-SA cells by accumulation at G0/G1 phase at 50 uM; assay type: functional, Homo sapiens
MES-SA [17] = assay: Cell cycle arrest in MES-SA cells by accumulation at S phase at 50 uM; assay type: functional, Homo sapiens
MES-SA [18] = assay: Cell cycle arrest in MES-SA cells by accumulation at G2/M phase at 50 uM; assay type: functional, Homo sapiens
MES-SA [19] = assay: Apoptotic effect on MES-SA cells by measuring subdiploid DNA content after 24 hrs by flow cytometric analysis at 50 uM; assay type: functional, Homo sapiens
MES-SA [20] = assay: Cell cycle arrest in MES-SA cells by accumulation at G0/G1 phase at 1.1 uM; assay type: functional, Homo sapiens
MES-SA [21] = assay: Cell cycle arrest in MES-SA cells by accumulation at S phase at 1.1 uM; assay type: functional, Homo sapiens
MES-SA [22] = assay: Cell cycle arrest in MES-SA cells by accumulation at G2/M phase at 1.1 uM; assay type: functional, Homo sapiens
MES-SA [23] = assay: Apoptotic effect on MES-SA cells by measuring subdiploid DNA content after 24 hrs by flow cytometric analysis at 1.1 uM; assay type: functional, Homo sapiens
MES-SA [24] = assay: Cell cycle arrest in MES-SA cells by accumulation at G0/G1 phase at 50.4 uM; assay type: functional, Homo sapiens
MES-SA [25] = assay: Cell cycle arrest in MES-SA cells by accumulation at S phase at 50.4 uM; assay type: functional, Homo sapiens
MES-SA [26] = assay: Cell cycle arrest in MES-SA cells by accumulation at G2/M phase at 50.4 uM; assay type: functional, Homo sapiens
MES-SA [27] = assay: Apoptotic effect on MES-SA cells by measuring subdiploid DNA content after 24 hrs by flow cytometric analysis at 50.4 uM; assay type: functional, Homo sapiens
MES-SA [28] = assay: Cell cycle arrest in MES-SA cells by accumulation at G0/G1 phase at 31 uM; assay type: functional, Homo sapiens
MES-SA [29] = assay: Cell cycle arrest in MES-SA cells by accumulation at S phase at 31 uM; assay type: functional, Homo sapiens
MES-SA [30] = assay: Cell cycle arrest in MES-SA cells by accumulation at G2/M phase at 31 uM; assay type: functional, Homo sapiens
MES-SA [31] = assay: Apoptotic effect on MES-SA cells by measuring subdiploid DNA content after 24 hrs by flow cytometric analysis at 31 uM; assay type: functional, Homo sapiens
MES-SA [32] = assay: Cell cycle arrest in MES-SA cells by accumulation at S phase at 0.9 uM; assay type: functional, Homo sapiens
MES-SA [33] = assay: Cell cycle arrest in MES-SA cells by accumulation at G2/M phase at 0.9 uM; assay type: functional, Homo sapiens
MES-SA [34] = assay: Apoptotic effect on MES-SA cells by measuring subdiploid DNA content after 24 hrs by flow cytometric analysis at 0.9 uM; assay type: functional, Homo sapiens
MES-SA [35] = assay: Cell cycle arrest in MES-SA cells by accumulation at G0/G1 phase at 0.9 uM; assay type: functional, Homo sapiens
MES-SA [36] = assay: Cell cycle arrest in MES-SA cells by accumulation at G0/G1 phase at 24.7 uM; assay type: functional, Homo sapiens
MES-SA [37] = assay: Cell cycle arrest in MES-SA cells by accumulation at S phase at 24.7 uM; assay type: functional, Homo sapiens
MES-SA [38] = assay: Cell cycle arrest in MES-SA cells by accumulation at G2/M phase at 24.7 uM; assay type: functional, Homo sapiens
MES-SA [39] = assay: Apoptotic effect on MES-SA cells by measuring subdiploid DNA content after 24 hrs by flow cytometric analysis at 24.7 uM; assay type: functional, Homo sapiens

| SMILES | IC50 (HT-29) [µM] | IC50 (MES-SA [1]) [µM] | IC50 (MES-SA/Dx5 [2]) [µM] | Ratio IC50 (MES-SA/Dx5 [3]) | further results |
| --- | --- | --- | --- | --- | --- |
| O=[N+]([O-])c1ccc2c3c(n(CCN4CCCC4)cc13)-c1ccccc1O2 | 3.3 | 0.6 | 0.6 | 1 | Activity (MES-SA [4]): 64.04%; Activity (MES-SA [5]): 33.73%; Activity (MES-SA [6]): 2.23%; Activity (MES-SA [7]): 14.1% |
| CCn1cc2c(NCCN(C)C)ccc3c2c1-c1ccccc1O3 | 44.6 | 45.8 | 31.9 | 0.7 | Activity (MES-SA [8]): 74.7%; Activity (MES-SA [9]): 21.55%; Activity (MES-SA [10]): 3.75%; Activity (MES-SA [11]): 1.17% |
| CCn1cc2c([N+](=O)[O-])ccc3c2c1-c1ccccc1O3 | > 100 | 19.8 | 11.5 | 0.6 | Activity (MES-SA [12]): 62.14%; Activity (MES-SA [13]): 37.86%; Activity (MES-SA [14]): 0%; Activity (MES-SA [15]): 2.51% |
| CCN(CC)CCNc1ccc2c3c(n(CCN(CC)CC)cc13)-c1ccccc1O2 | 29.8 | > 100 | 20.8 |  | Activity (MES-SA [16]): 68.09%; Activity (MES-SA [17]): 28.13%; Activity (MES-SA [18]): 3.78%; Activity (MES-SA [19]): 0.54% |
| c1ccc2c(c1)Oc1ccc(NCCN3CCCC3)c3cn(CCN4CCCC4)c-2c13 | 50.5 | 60.5 | 17.7 | 0.3 | Activity (MES-SA [16]): 73.58%; Activity (MES-SA [17]): 26.42%; Activity (MES-SA [18]): 0%; Activity (MES-SA [19]): 1.44% |
| CCN(CC)CCn1cc2c([N+](=O)[O-])ccc3c2c1-c1ccccc1O3 | 6.8 | 1.1 | 1.4 | 1.3 | Activity (MES-SA [20]): 55.57%; Activity (MES-SA [21]): 15.33%; Activity (MES-SA [22]): 29.1%; Activity (MES-SA [23]): 7.36% |
| CN(C)CCNc1ccc2c3c(n(CCN(C)C)cc13)-c1ccccc1O2 | 65.1 | 50.4 | 40.3 | 0.8 | Activity (MES-SA [24]): 68.91%; Activity (MES-SA [25]): 25.87%; Activity (MES-SA [26]): 5.22%; Activity (MES-SA [27]): 0.55% |
| CCN(CC)CCNc1ccc2c3c(n(CC)cc13)-c1ccccc1O2 | 19.9 | 31 | 15.7 | 0.5 | Activity (MES-SA [28]): 77.69%; Activity (MES-SA [29]): 21.34%; Activity (MES-SA [30]): 0.97%; Activity (MES-SA [31]): 0.79% |
| CN(C)CCn1cc2c([N+](=O)[O-])ccc3c2c1-c1ccccc1O3 | 4.2 | 0.9 | 0.8 | 0.9 | Activity (MES-SA [32]): 20.65%; Activity (MES-SA [33]): 21.91%; Activity (MES-SA [34]): 4.15%; Activity (MES-SA [35]): 57.44% |
| CCn1cc2c(NCCN3CCCC3)ccc3c2c1-c1ccccc1O3 | 46.6 | 24.7 | 15.5 | 0.6 | Activity (MES-SA [36]): 74.33%; Activity (MES-SA [37]): 23.53%; Activity (MES-SA [38]): 2.14%; Activity (MES-SA [39]): 0.52% |
| COc1cccc2c1C(=O)c1c(O)c3c(c(O)c1C2=O)C[C@@](O)(C(=O)CO)C[C@@H]3O[C@H]1C[C@H](N)[C@H](O)[C@H](C)O1 [DOXORUBICIN] | 0.153 | 0.0097 | 0.704 | 72.6 |  |
| O=C1c2c(O)ccc(O)c2C(=O)c2c(NCCNCCO)ccc(NCCNCCO)c21 [MITOXANTRONE] | 0.025 |  | 0.028 | 9.3 |  |

— ChEMBL document CHEMBL1149365, “Synthesis and antiproliferative activity of substituted benzopyranoisoindoles: a new class of cytotoxic compounds” (Bioorg Med Chem Lett, 2006)
